These results are taken from patent publication US20250003952A1, “SENOLYTIC DRUG SCREENING METHOD AND SENOLYTIC DRUG” (KYOTO UNIVERSITY, priority 2021, published 2025).

Peptide text beside a SMILES is read from it. * marks the point of attachment. Cbz = O=C(OCc1ccccc1)*

Assay [1] has as its system IMR90 cells. The experiment in a line: Secondary screening: senolytic activity, young vs senescent IMR90 cells, crystal violet. The format is cell-based, human. The settings on record: young vs Ras-induced senescent IMR90 cells; 5 μM and 10 μM; 72 hours; criterion of positivity 1.14 or more. The procedure: In the secondary screening, the agent sensitivity of young IMR90 cells and senescent IMR90 cells was compared. The senescent IMR90 cells were prepared by inducing an oncogenic Ras mutation. The young cells and the senescent cells were each seeded in a 96-well plate, and two days later, the candidate drugs obtained from the primary screening were treated at two concentrations of 5 μM and 10 μM. Surviving cells after 72 hours were fixed with formalin and stained with crystal violet. After that, crystal violet in each well was extracted with 2% Triton X100 and quantified (FIG. 31-1 and FIG. 31-2). Young cells and senescent cells were each treated with a solvent (DMSO), and the resulting cells were used as a negative control, and the survival rate compared to the negative control was calculated by the following expression. Furthermore, the agent sensitivity of the young cells and the senescent cells was compared and evaluated as senolytic activity (young cell viability/senescent cell viability). The criterion of positivity was a senolytic activity of 1.14 or more.
Viability(%)=(Sample/negative subject)×100
Senolytic activity=young cell viability/senescent cell viability

For the next assay, the system named is PGAM-Chk1 kinase binding. The settings on record: cancer cells; Mikawa et al., 2020; cited from earlier work.
The test system of assay [2] is IMR90 cells. Nature of the assay: Senolysis / cell death of young and Ras-induced senescent IMR90 cells. The format is cell-based, human. An excerpt: Ras gene with oncogenic mutation was introduced into young cells (within 1 month of continuous culture) of IMR90 cells by retroviral infection to acquire senescent cells. […] The control received only DMSO treatment. Representative images of cells observed under a microscope are shown (FIG. 11).
An oncogenic mutated Ras gene was introduced into young cells (within 1 month of continuous culture) of IMR90 cells by retroviral infection to acquire stress-induced senescent cells. The young cells and the senescent cells were both treated with different concentrations of the RSK kinase inhibitor BI-D1870 for 96 hours to evaluate cell death.
An oncogenic mutated Ras gene was introduced into young cells (within 1 month of continuous culture) of IMR90 cells by retroviral infection to acquire stress-induced senescent cells. The young cells and the senescent cells of IMR90 were both transfected with an RSK1 siRNA (two types of siRNA #1 (SEQ ID NO: 7) or #2 (SEQ ID NO: 8) having different target sequences) or a control to knock down RSK1. Representative images of cells observed under a microscope are shown (upper diagram in FIG. 20).
An oncogenic Ras was introduced into young cells (within 1 month of continuous culture) of IMR90 cells to induce senescent cells (OIS). The young cells and the senescent cells of IMR90 were transfected with two HIF-2α-specific siRNAs (SEQ ID NO: 9 and SEQ ID NO: 10) having different target sequences to knock down HIF-2α.
An oncogenic Ras was introduced into young cells (within 1 month of continuous culture) of IMR90 cells to induce senescent cells (OIS). The young cells and the senescent cells of IMR90 were transfected with a BIM-specific siRNA to knock down BIM.
An oncogenic Ras was introduced into young cells (within 1 month of continuous culture) of IMR90 cells to induce senescent cells (OIS). In the young cells and the senescent cells of IMR90, HIF-2α alone or both HIF-2α and BIM were knocked down by using their respective specific siRNAs (SEQ ID NO: 9, SEQ ID NO: 10), and cell death was confirmed (FIG. 28).
The latter information consists of 12,655 ChIP datasets from 903 antigens (transcription factors and epigenetic regulators).

The next assay concerns HIF-2α. The experiment in a line: HIF-2α protein (Western blot) and mRNA expression in IMR90 cells. It counts as cell-based, human. From the text: As a result, it was observed that the HIF-2α protein decreased in the nutlin 3b-treated group and the BI-D1870-treated group (upper diagram and lower diagram in FIG. 22).
An oncogenic Ras was introduced into young cells (within 1 month of continuous culture) of IMR90 cells to induce senescent cells (OIS). […] It is known that ubiquitination is induced by phosphorylation in the vicinity of a ubiquitination site (Hagai et al., 2012). The consensus sequences (K/R-K/R-x-x-S/T) for phosphorylation by Chk1 located at the N-terminus of HIF-2α were conserved, and these were named Motif1 (including Ser12 residues) and Motif2 (including Ser19 residues) (FIG. 40, SEQ ID NOs: 77 to 81).

The subject of a further assay is human fibroblasts. The experiment in a line: Lactate treatment of human fibroblasts. The format is cell-based. On the procedure: In order to explore the physiological significance of enhanced glycolysis in senescence, a conditioned medium consisting of senescent cells and non-senescent cells was prepared and added to human fibroblasts at the early passage. PGAM-Chk1 interaction was potentiated by culture supernatant from the senescent cells, but not potentiated in the control (FIG. 44). It was considered from this that a component potentiating the PGAM-Chk1 interaction was included in the culture supernatant from the senescent cells. Lactate was considered to be a candidate for such a component, and human fibroblasts were treated with lactate. […] GPR81 signaling is known to be partially involved in oncogenic modules including the Ras pathway (Ohno et al., 2018). In senescent cells or lactate-treated cells, it was observed that RSK1 kinase, which is downstream of the Ras pathway, was activated, accompanied by phosphorylation of Ser280 of Chk1 (Li et al., 2012), which is a known target of RSK (FIG. 49).

Setting [3] is: human fibroblasts treated with lactate.

Consider `CC(/C=C/C(=O)NO)=C\[C@@H](C)C(=O)c1ccc(N(C)C)cc1` [Trichostatin A (TSA), Trichostatin A], for which the “senolytic activity (young cell viability/senescent cell viability)” value with IMR90 cells [1] is on record as “have senolytic activity”.

Consider `CC(C)c1ccccc1Cc1cc(C(=O)Nc2ccc(S(=O)(=O)c3ccccc3C(C)(C)C)cc2)c(O)c(O)c1O` [TW-37], for which the “senolytic activity (young cell viability/senescent cell viability)” value with IMR90 cells [1] was “have senolytic activity”.

`C[S+]([O-])c1ccc(-c2nc(-c3ccncc3)c(-c3ccc(F)cc3)[nH]2)cc1` (stereo not drawn) [SB203580]: the “senolytic activity (young cell viability/senescent cell viability)” value with IMR90 cells [1] is listed as “have senolytic activity”.

For the compound `CC(C)CCN1c2nc(Nc3cc(F)c(O)c(F)c3)ncc2N(C)C(=O)C1C` (stereo not drawn) [BI-D1870], in the assay with PGAM-Chk1 kinase binding, the PGAM-Chk1 kinase binding result is given as “inhibited” and the glycolytic metabolism result is “decreased”. Also, the “senolytic effect (cell death)” value in the assay on IMR90 cells [2] (young and senescent IMR90 cells, 96 hours, 10 μM or 20 μM) was “remarkable senolytic effect”. Also, in the assay on HIF-2α (young and senescent cells, different concentrations for 96 hours), the HIF-2α protein result is “decreased”.

Regarding `CC(O)C(=O)O` (stereo not drawn) [lactate], in the assay on human fibroblasts (setting [3]), the SASP expression entry is reported as “stimulated”, the “accumulation of HIF-2α” value is “observed in a lactate concentration-dependent manner”, the “enhancement of PGAM-Chk1 interaction” value is given as “observed in a lactate concentration-dependent manner” and the “p21 level vs control” value is listed as “did not provide a difference”. Also, in the assay with human fibroblasts (setting [3]), the “phosphorylation of Ser12 of HIF-2α” value is recorded as “observed in a lactate concentration-dependent manner”. For the same compound, the “RSK1 kinase activation (accompanied by phosphorylation of Ser280 of Chk1)” value with human fibroblasts (lactate-treated cells) was “activated”.

With `O=C(O)c1ccc2c(c1)nc(Nc1cccc(Cl)c1)c1ccncc12` [CX-4945], the “senolytic activity (young cell viability/senescent cell viability)” value in the assay on IMR90 cells [1] was “have senolytic activity”.

As for `COc1ccc(-c2ccc3c(N4CCOC[C@@H]4C)nc(N4CCOC[C@@H]4C)nc3n2)cc1CO` [AZD8055], the “senolytic activity (young cell viability/senescent cell viability)” value in the assay on IMR90 cells [1] is listed as “have senolytic activity”.

In the case of `CCOc1cc2ncc(C#N)c(Nc3ccc(OCc4ccccn4)c(Cl)c3)c2cc1NC(=O)/C=C/CN(C)C` [Neratinib], the “senolytic activity (young cell viability/senescent cell viability)” value in the assay on IMR90 cells [1] is recorded as “have senolytic activity”.

Regarding `CC(C)C[C@@H](C=O)NC(=O)[C@H](CC(C)C)NC(=O)[C@H](CC(C)C)NC(=O)OCc1ccccc1` [MG132] (Cbz-Leu-Leu-Leu-aldehyde), the “HIF-2α protein level under nutlin 3b treatment” value with HIF-2α (senescent (OIS) IMR90 cells treated with nutlin 3b plus proteasome inhibitor) is “remarkably restored”.

Consider `COC(=O)c1ccc2c(c1)NC(=O)/C2=C(\Nc1ccc(N(C)C(=O)CN2CCN(C)CC2)cc1)c1ccccc1` [Vargatef], for which the “senolytic activity (young cell viability/senescent cell viability)” value with IMR90 cells [1] is “have senolytic activity”.

In the case of Verteporfin, in the assay on IMR90 cells [1], the “senolytic activity (young cell viability/senescent cell viability)” value is “have senolytic activity”.

As to `CN(C)C1CCN(C(=O)c2ccc(NC(=O)Nc3ccc(-c4nc(N5CCOCC5)nc(N5CCOCC5)n4)cc3)cc2)CC1` [PF-05212384], in the assay with IMR90 cells [1], the “senolytic activity (young cell viability/senescent cell viability)” value is “have senolytic activity”.

As for `Cc1ccc2nc(NCCN)c3ncc(C)n3c2c1` [BMS-345541], the “senolytic activity (young cell viability/senescent cell viability)” value in the assay with IMR90 cells [1] was “have senolytic activity”.

On to `COc1ccc(-c2ccc3c(N4CCOCC4)nc(N4C[C@@H](C)O[C@@H](C)C4)nc3n2)cc1CO` [KU-0063794], for which the “senolytic activity (young cell viability/senescent cell viability)” value in the assay with IMR90 cells [1] is “have senolytic activity”.

In the case of `CC[C@H](C)C(=O)O[C@H]1CCC=C2C=C[C@H](C)[C@H](CC[C@@H]3C[C@@H](O)CC(=O)O3)[C@H]21` [Mevastatin], in the assay with IMR90 cells [1], the “senolytic activity (young cell viability/senescent cell viability)” value is listed as “have senolytic activity”.

`Cc1ccc(-n2nc(C(C)(C)C)cc2NC(=O)Nc2ccc(OCCN3CCOCC3)c3ccccc23)cc1` [Doramapimod (BIRB 796), Doramapimod]: in the assay on IMR90 cells [1], the “senolytic activity (young cell viability/senescent cell viability)” value is “have senolytic activity”.

On to `Cc1ccc(C(=O)Nc2cccc(C(F)(F)F)c2)cc1Nc1nc(-c2cccnc2)nc2c1cnn2C` [NVP-BHG712], for which the “senolytic activity (young cell viability/senescent cell viability)” value with IMR90 cells [1] was “have senolytic activity”.

As to `CC(C)c1cc(-c2ccc(F)c3ccccc23)nc(N)n1` [RS-127445], in the assay with IMR90 cells [1], the “senolytic activity (young cell viability/senescent cell viability)” value was “have senolytic activity”.

On to `CC(C)[C@H](NC(=O)c1ccc2ccccc2n1)C(=O)N[C@@H](CC(=O)O)C(=O)COc1c(F)cccc1F` [QVD-Oph], for which the “viability of senescent cells under nutlin 3b treatment” value with IMR90 cells [2] (senescent cells, nutlin 3b plus apoptosis inhibitor) is “restored”.
